Laboratory results: the NIST ThermoML archive (doi:10.1016/j.jct.2013.10.007)
Numbers after ± are expanded uncertainties.

Legend:
[1] = Molar enthalpy of transition or fusion; conditions: Crystal; DSC
[2] = Crystal; DTA

CCCCCCCCCCCCCCCCCC(=O)OCC(COC(=O)CCCCCCCCCCCCCCCCC)OC(=O)CCCCCCCCCCCCCCCCC [glycerol trioctadecanoate]
Molar enthalpy of transition or fusion [1]: 27.7 ± 8.6 kcal/mol
Normal melting temperature [2]: 72.89 ± 0.53 °C
